The record followed here is patent US5436269A, “Method for treating hepatitis” (Sagami Chemical Research Center, priority 1991, dated 1995).

One data set concerns fulminant hepatitis. The data set is described as follows: Survival of model rats with induced fulminant hepatitis (D-galactosamine hydrochloride and lipopolysaccharide). Format: in vivo, Wister rats.
The next data set in a line: in vivo. The following applies: mouse. Set-up: species or system ddy-N mice. The method, then:
Acute toxicity of ethyl docosahexaenoate was tested.
Tested animal: ddy-N mice, 5-week age, 5 male and 5 female
All tested mice were anatomically evaluated after the test.

Experimental for fulminant hepatitis: Male Wister rats of 200 g weight were processed to be model animals for inducing hepatitis. Namely, 1500 mg/kg-weight of D-galactosamine hydrochloride was intestinally administrated and, at the same time, 10 μg of lipopolysaccharide derived from E. coli 0111:B4 was injected intravenously.

Turning to `CC/C=C\C/C=C\C/C=C\C/C=C\C/C=C\C/C=C\CCC(=O)OCC(COC(=O)CC/C=C\C/C=C\C/C=C\C/C=C\C/C=C\C/C=C\CC)OC(=O)CC/C=C\C/C=C\C/C=C\C/C=C\C/C=C\C/C=C\CC` [DHA triglyceride], the “model rats survived more than 24 hours” value in the data set with fulminant hepatitis (emulsion containing 10% of 99% pure DHA triglyceride, simultaneous with hepatitis inducer) is on record as 67%. In addition, the induction of hepatitis result in the data set on fulminant hepatitis (model rats, result in words) was “inhibits the induction of hepatitis”.

What is called LD50 is the dose at which mortality reaches 50%. Lower therefore signals greater toxicity. For `CC/C=C\C/C=C\C/C=C\C/C=C\C/C=C\C/C=C\CCC(=O)OCC` [ethyl docosahexaenoate], the median lethal dose (LD50) in “in vivo” was greater than 2000 mg/kg. The compound also yielded a rats survived in the data set on fulminant hepatitis (emulsion of ethyl ester of 99% pure DHA, same experiment as Example 2, control rats died within 24 hours) of 75%.
